ChEMBL document CHEMBL1153194, “Discovery of halo-nitrobenzamides with potential application against human African trypanosomiasis” (Bioorg Med Chem Lett, 2010)

Legend:
[1] = Solubility of the compound; format: physicochemical
Plasmodium falciparum = experiment: Antiplasmodial activity against Plasmodium falciparum 3D7 infected in human O+ erythrocytes after 72 hrs by GNA satin based assay; format: functional, organism-based; settings: 3D7, 72 h
[2] = test system: Trypanosoma brucei brucei; experiment: Antitrypanosomal activity against Trypanosoma brucei brucei after 48 hrs by luminescence assay; format: functional, organism-based
HepG2 = experiment: Cytotoxicity against human HepG2 cells after 72 hrs; format: cell-based; settings: HepG2, 72 h

SMILES | solubility [1] [µM] | IC50 (Plasmodium falciparum) [µM] | IC50 [2] [µM] | IC50 (HepG2) [µM]
CCCCCCc1ccc(NC(=O)c2ccc(F)c([N+](=O)[O-])c2)cc1 | < 0.1 | > 15 | 24 | 10.3
CCCCCCc1ccc(NC(=O)c2ccc([N+](=O)[O-])cc2Cl)cc1 | < 0.1 | > 15 | 19 | > 50
CCCCCCc1ccc(NC(=O)c2cccc([N+](=O)[O-])c2Cl)cc1 | < 0.1 | > 15 | > 50 | > 50
CCCCCCc1ccc(C(=O)Nc2cc([N+](=O)[O-])ccc2Cl)cc1 | < 0.1 | > 15 | > 50 | > 50
CCCCCCc1ccc(C(=O)Nc2ccc(Cl)c([N+](=O)[O-])c2)cc1 | < 0.1 | > 15 | 6 | > 50
CCCCCCc1ccc(NC(=O)c2cc([N+](=O)[O-])ccc2Cl)cc1 | < 0.1 | > 15 | 1 | > 50
CCCCCCc1ccc(NC(=O)c2ccc(Cl)cc2[N+](=O)[O-])cc1 | < 0.1 | > 15 | 20.8 | > 50
CCCCCCc1ccc(C(=O)Oc2ccc(Cl)c([N+](=O)[O-])c2)cc1 | < 0.1 | > 15 | 24 | > 50
CCCCCCc1ccc(NC(=O)c2ccc(Cl)c([N+](=O)[O-])c2)cc1 | < 0.1 | > 15 | 11.9 | > 50
CCCCCCc1ccc(NC(=O)c2c(Cl)cccc2[N+](=O)[O-])cc1 | < 0.1 | > 15 | 29.8 | > 50
CCCCCCc1ccc(NC(=O)c2cc([N+](=O)[O-])ccc2F)cc1 | < 0.1 | 7.3 | 1.5 | 2.5

Continued, in another order:

solubility [1] [µM] | IC50 (Plasmodium falciparum) [µM] | IC50 [2] [µM] | SMILES | IC50 (HepG2) [µM]
– | > 15 | 24.5 | COc1ccc(N2CCN(C(=O)c3cc([N+](=O)[O-])ccc3Cl)CC2)cc1 | > 50
– | > 15 | 19.2 | COc1ccc(NC(=O)c2cc([N+](=O)[O-])ccc2Cl)cc1 | > 50
– | > 15 | 1.5 | O=C(Nc1ccc(Cl)cc1)c1cc([N+](=O)[O-])ccc1Cl | > 50
– | > 15 | 27 | O=C(NCC1CCCCC1)c1cc([N+](=O)[O-])ccc1Cl | > 50
– | > 15 | > 50 | O=C(NCc1ccccc1)c1cc([N+](=O)[O-])ccc1Cl | > 50
– | > 15 | 7.7 | Cc1ccc(NC(=O)c2cc([N+](=O)[O-])ccc2Cl)cc1 | > 50
